Results published in US9439426B2, “Active compound combinations comprising carboxamide derivatives and a biological control agent” (BAYER CROPSCIENCE AG, priority 2012, dated 2016).

Experiments:
Septoria tritici = test: Septoria tritici-test (wheat)/preventive; type: in vivo; conditions: preventive, 30 ppm a.i., evaluated 21 days after inoculation
Method: (§1) The commercially available compounds SERENADE-MAX®, SONATA®, active compounds (1 part by weight) solved in N,N-dimethylacetamide (49 parts by weight) and alkylaryl polyglycol ether (1 part by weight), or combinations thereof were diluted with water to the desired concentration.
(§2) To test for preventive activity, young plants are sprayed with the preparation of active compound or active compound combination at the stated rate of application.
After the spray coating has been dried, the plants are sprayed with a spore suspension of Septoria tritici. The plants remain for 48 hours in an incubation cabinet at approximately 20° C. and a relative atmospheric humidity of approximately 100% and afterwards for 60 hours at approximately 15° C. in a translucent incubation cabinet at a relative atmospheric humidity of approximately 100%.
The plants are placed in the greenhouse at a temperature of approximately 15° C. and a relative atmospheric humidity of approximately 80%.
The test is evaluated 21 days after the inoculation. 0% means an efficacy which corresponds to that of the untreated control, while an efficacy of 100% means that no disease is observed.

Puccinia triticina = test: Puccinia triticina-test (wheat)/preventive; type: in vivo; conditions: preventive, 30 ppm a.i., evaluated 8 days after inoculation
Method: as §1, §2
After the spray coating has been dried, the plants are sprayed with a spore suspension of Puccinia triticina. The plants remain for 48 hours in an incubation cabinet at approximately 20° C. and a relative atmospheric humidity of approximately 100%.
(§3) The plants are placed in the greenhouse at a temperature of approximately 20° C. and a relative atmospheric humidity of approximately 80%.
(§4) The test is evaluated 8 days after the inoculation. 0% means an efficacy which corresponds to that of the untreated control, while an efficacy of 100% means that no disease is observed.

Pyrenophora teres = test: Pyrenophora teres-test (barley)/preventive; type: in vivo; conditions: preventive, 30 ppm a.i., evaluated 8 days after inoculation
Method: as §1, §2
After the spray coating has been dried, the plants are sprayed with a spore suspension of Pyrenophora teres. The plants remain for 48 hours in an incubation cabinet at approximately 20° C. and a relative atmospheric humidity of approximately 100%.
as §3, §4

[1] = log P by HPLC on reversed-phase column (C 18), EEC Directive 79/831 Annex V.A8; type: physicochemical; conditions: reversed-phase HPLC column (C 18), 40° C., 0.1% aqueous formic acid and acetonitrile
Method: In table 1, the log P values were determined in accordance with EEC Directive 79/831 Annex V.A8 by HPLC (High Performance Liquid Chromatography) on a reversed-phase column (C 18), using the method described below:
Temperature: 40° C.; Mobile phases: 0.1% aqueous formic acid and acetonitrile; linear gradient from 10% acetonitrile to 90% acetonitrile.
Calibration was carried out using unbranched alkan-2-ones (comprising 3 to 16 carbon atoms) with known log P values (determination of the log P values by the retention times using linear interpolation between two successive alkanones). lambda-max-values were determined using UV-spectra from 200 nm to 400 nm and the peak values of the chromatographic signals.

Row | Compound | Efficacy in % found (Septoria tritici) [%] | Efficacy in % found (Puccinia triticina) [%] | Efficacy in % found (Pyrenophora teres) [%] | chromatographic logP [1]
1 | CC(C)c1ccc(Cl)cc1CN(C(=O)c1c(C(F)F)nn(C)c1F)C1CC1 [A5, N-(5-chloro-2-isopropylbenzyl)-N-cyclopropyl-3-(difluoromethyl)-5-fluoro-1-methyl-1H-pyrazole-4-carboxamide] | 60 | 67 | 78 | –
2 | CC(C)c1ccccc1CN(C(=S)c1c(C(F)F)nn(C)c1F)C1CC1 [A20, N-cyclopropyl-3-(difluoromethyl)-5-fluoro-N-(2-isopropylbenzyl)-1-methyl-1H-pyrazole-4-carbothioamide] | – | – | – | 4.36
